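A five-concentration, 48-hour dose response in 96-well plates underlies each endpoint, interpolated linearly between surrounding concentrations. GI50: concentration for 50% inhibition of growth. At the TGI there is no net growth.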
Assays:
Assay in all cases: inhibition of tumour cell growth, NCI panel, 48 h
SR leukemia = tested on: SR leukemia
RPMI-8226 leukemia = tested on: RPMI-8226 leukemia
HS 578T breast = tested on: HS 578T breast
OVCAR-4 ovarian = tested on: OVCAR-4 ovarian
HOP-62 NSCLC = tested on: HOP-62 NSCLC
UO-31 renal = tested on: UO-31 renal
ACHN renal = tested on: ACHN renal
LOX IMVI melanoma = tested on: LOX IMVI melanoma
KM12 colon = tested on: KM12 colon
CAKI-1 renal = tested on: CAKI-1 renal
DU-145 prostate = tested on: DU-145 prostate
K-562 leukemia = tested on: K-562 leukemia
BT-549 breast = tested on: BT-549 breast
HL-60(TB) leukemia = tested on: HL-60(TB) leukemia
OVCAR-3 ovarian = tested on: OVCAR-3 ovarian
UACC-257 melanoma = tested on: UACC-257 melanoma
M14 melanoma = tested on: M14 melanoma
COLO 205 colon = tested on: COLO 205 colon
NCI-H226 lung = tested on: NCI-H226 lung
SN12C renal = tested on: SN12C renal
EKVX NSCLC = tested on: EKVX NSCLC
SNB-75 CNS = tested on: SNB-75 CNS
SK-MEL-2 melanoma = tested on: SK-MEL-2 melanoma
HOP-92 NSCLC = tested on: HOP-92 NSCLC
SF-268 CNS = tested on: SF-268 CNS
NCI-H522 lung = tested on: NCI-H522 lung
NCI/ADR-RES ovarian = tested on: NCI/ADR-RES ovarian
SW-620 colon = tested on: SW-620 colon
MDA-MB-231 breast = tested on: MDA-MB-231 breast
MALME-3M melanoma = tested on: MALME-3M melanoma
SNB-19 CNS = tested on: SNB-19 CNS
NCI-H460 lung = tested on: NCI-H460 lung
U251 CNS = tested on: U251 CNS
NCI-H23 lung = tested on: NCI-H23 lung
786-0 renal = tested on: 786-0 renal
MDA-MB-435 = tested on: MDA-MB-435
SF-295 CNS = tested on: SF-295 CNS
OVCAR-8 ovarian = tested on: OVCAR-8 ovarian
SK-MEL-5 melanoma = tested on: SK-MEL-5 melanoma
SK-OV-3 ovarian = tested on: SK-OV-3 ovarian
HT29 colon = tested on: HT29 colon
CCRF-CEM leukemia = tested on: CCRF-CEM leukemia
MCF7 breast = tested on: MCF7 breast
IGROV1 ovarian = tested on: IGROV1 ovarian
A498 renal = tested on: A498 renal
A549 NSCLC = tested on: A549 NSCLC
HCT-116 colon = tested on: HCT-116 colon
RXF 393 renal = tested on: RXF 393 renal
SK-MEL-28 melanoma = tested on: SK-MEL-28 melanoma
SF-539 CNS = tested on: SF-539 CNS
MOLT-4 leukemia = tested on: MOLT-4 leukemia
OVCAR-5 ovarian = tested on: OVCAR-5 ovarian
HCT-15 colon = tested on: HCT-15 colon
T-47D breast = tested on: T-47D breast
TK-10 renal = tested on: TK-10 renal

`CCOC(=O)C1=C(C)N(c2ccc(F)cc2F)[C@]2(C#N)C(O)=C(Cl)C(Cl)=C(O)[C@]12C#N` gave a GI50 (SR leukemia) of 34.5 µM, a TGI (SR leukemia) of 95.9 µM and a GI50 (RPMI-8226 leukemia) of 27.1 µM. It also gave a TGI (RPMI-8226 leukemia) greater than 100 µM, a GI50 (HS 578T breast) greater than 100 µM and a TGI (HS 578T breast) greater than 100 µM. The GI50 (OVCAR-4 ovarian) was greater than 100 µM, the TGI (OVCAR-4 ovarian) was greater than 100 µM and the GI50 (HOP-62 NSCLC) was greater than 100 µM. The TGI (HOP-62 NSCLC) was greater than 100 µM, the GI50 (UO-31 renal) was greater than 100 µM and the TGI (UO-31 renal) was greater than 100 µM. The GI50 (ACHN renal) was greater than 100 µM, the TGI (ACHN renal) was greater than 100 µM and the GI50 (LOX IMVI melanoma) was greater than 100 µM. For the same compound, the TGI (LOX IMVI melanoma) was greater than 100 µM, the GI50 (KM12 colon) was greater than 100 µM and the TGI (KM12 colon) was greater than 100 µM. It also gave a GI50 (CAKI-1 renal) greater than 100 µM, a TGI (CAKI-1 renal) greater than 100 µM and a GI50 (DU-145 prostate) greater than 100 µM. For the same compound, the TGI (DU-145 prostate) was greater than 100 µM, the GI50 (K-562 leukemia) was 88 µM and the TGI (K-562 leukemia) was greater than 100 µM. The GI50 (BT-549 breast) was greater than 100 µM, the TGI (BT-549 breast) was greater than 100 µM and the GI50 (HL-60(TB) leukemia) was greater than 100 µM. It also gave a TGI (HL-60(TB) leukemia) greater than 100 µM, a GI50 (OVCAR-3 ovarian) greater than 100 µM and a TGI (OVCAR-3 ovarian) greater than 100 µM. The GI50 (UACC-257 melanoma) was greater than 100 µM, the TGI (UACC-257 melanoma) was greater than 100 µM and the GI50 (M14 melanoma) was greater than 100 µM. It also gave a TGI (M14 melanoma) greater than 100 µM, a GI50 (COLO 205 colon) greater than 100 µM and a TGI (COLO 205 colon) greater than 100 µM. For the same compound, the GI50 (NCI-H226 lung) was greater than 100 µM, the TGI (NCI-H226 lung) was greater than 100 µM and the GI50 (SN12C renal) was greater than 100 µM. It also gave a TGI (SN12C renal) greater than 100 µM, a GI50 (EKVX NSCLC) greater than 100 µM and a TGI (EKVX NSCLC) greater than 100 µM. For the same compound, the GI50 (SNB-75 CNS) was greater than 100 µM, the TGI (SNB-75 CNS) was greater than 100 µM and the GI50 (SK-MEL-2 melanoma) was greater than 100 µM. The TGI (SK-MEL-2 melanoma) was greater than 100 µM, the GI50 (HOP-92 NSCLC) was 1.77 µM and the TGI (HOP-92 NSCLC) was greater than 100 µM. The GI50 (SF-268 CNS) was greater than 100 µM, the TGI (SF-268 CNS) was greater than 100 µM and the GI50 (NCI-H522 lung) was greater than 100 µM. For the same compound, the TGI (NCI-H522 lung) was greater than 100 µM, the GI50 (NCI/ADR-RES ovarian) was 5.61 µM and the TGI (NCI/ADR-RES ovarian) was greater than 100 µM. The GI50 (SW-620 colon) was greater than 100 µM, the TGI (SW-620 colon) was greater than 100 µM and the GI50 (MDA-MB-231 breast) was greater than 100 µM. It also gave a TGI (MDA-MB-231 breast) greater than 100 µM, a GI50 (MALME-3M melanoma) greater than 100 µM and a TGI (MALME-3M melanoma) greater than 100 µM. It also gave a GI50 (SNB-19 CNS) greater than 100 µM, a TGI (SNB-19 CNS) greater than 100 µM and a GI50 (NCI-H460 lung) greater than 100 µM. The TGI (NCI-H460 lung) was greater than 100 µM, the GI50 (U251 CNS) was greater than 100 µM and the TGI (U251 CNS) was greater than 100 µM. The GI50 (NCI-H23 lung) was greater than 100 µM, the TGI (NCI-H23 lung) was greater than 100 µM and the GI50 (786-0 renal) was greater than 100 µM. For the same compound, the TGI (786-0 renal) was greater than 100 µM, the GI50 (MDA-MB-435) was greater than 100 µM and the TGI (MDA-MB-435) was greater than 100 µM. For the same compound, the GI50 (SF-295 CNS) was greater than 100 µM, the TGI (SF-295 CNS) was greater than 100 µM and the GI50 (OVCAR-8 ovarian) was greater than 100 µM. The TGI (OVCAR-8 ovarian) was greater than 100 µM, the GI50 (SK-MEL-5 melanoma) was greater than 100 µM and the TGI (SK-MEL-5 melanoma) was greater than 100 µM. For the same compound, the GI50 (SK-OV-3 ovarian) was greater than 100 µM, the TGI (SK-OV-3 ovarian) was greater than 100 µM and the GI50 (HT29 colon) was greater than 100 µM. It also gave a TGI (HT29 colon) greater than 100 µM, a GI50 (CCRF-CEM leukemia) of 28.8 µM and a TGI (CCRF-CEM leukemia) greater than 100 µM. It also gave a GI50 (MCF7 breast) greater than 100 µM, a TGI (MCF7 breast) greater than 100 µM and a GI50 (IGROV1 ovarian) greater than 100 µM. It also gave a TGI (IGROV1 ovarian) greater than 100 µM, a GI50 (A498 renal) greater than 100 µM and a TGI (A498 renal) greater than 100 µM. It also gave a GI50 (A549 NSCLC) greater than 100 µM, a TGI (A549 NSCLC) greater than 100 µM and a GI50 (HCT-116 colon) greater than 100 µM. It also gave a TGI (HCT-116 colon) greater than 100 µM, a GI50 (RXF 393 renal) greater than 100 µM and a TGI (RXF 393 renal) greater than 100 µM. The GI50 (SK-MEL-28 melanoma) was greater than 100 µM, the TGI (SK-MEL-28 melanoma) was greater than 100 µM and the GI50 (SF-539 CNS) was greater than 100 µM. It also gave a TGI (SF-539 CNS) greater than 100 µM, a GI50 (MOLT-4 leukemia) greater than 100 µM and a TGI (MOLT-4 leukemia) greater than 100 µM. It also gave a GI50 (OVCAR-5 ovarian) of 20.5 µM, a TGI (OVCAR-5 ovarian) greater than 100 µM and a GI50 (HCT-15 colon) greater than 100 µM. For the same compound, the TGI (HCT-15 colon) was greater than 100 µM, the GI50 (T-47D breast) was greater than 100 µM and the TGI (T-47D breast) was greater than 100 µM. For the same compound, the GI50 (TK-10 renal) was greater than 100 µM and the TGI (TK-10 renal) was greater than 100 µM.
